{"source": "patent US20120251551A1", "about": "“Substituted (Heteroarylmethyl)thiohydantoins” (BAYER PHARMA AKTIENGESELLSCHAFT, priority 2009, published 2012)", "key": {"[1]": {"molecular_target": "T1, wild-type human androgen receptor (Homo sapiens, UniProt P10275)", "T1 construct": "expressed in transfected cells", "T1 sequence (P10275 1-920)": "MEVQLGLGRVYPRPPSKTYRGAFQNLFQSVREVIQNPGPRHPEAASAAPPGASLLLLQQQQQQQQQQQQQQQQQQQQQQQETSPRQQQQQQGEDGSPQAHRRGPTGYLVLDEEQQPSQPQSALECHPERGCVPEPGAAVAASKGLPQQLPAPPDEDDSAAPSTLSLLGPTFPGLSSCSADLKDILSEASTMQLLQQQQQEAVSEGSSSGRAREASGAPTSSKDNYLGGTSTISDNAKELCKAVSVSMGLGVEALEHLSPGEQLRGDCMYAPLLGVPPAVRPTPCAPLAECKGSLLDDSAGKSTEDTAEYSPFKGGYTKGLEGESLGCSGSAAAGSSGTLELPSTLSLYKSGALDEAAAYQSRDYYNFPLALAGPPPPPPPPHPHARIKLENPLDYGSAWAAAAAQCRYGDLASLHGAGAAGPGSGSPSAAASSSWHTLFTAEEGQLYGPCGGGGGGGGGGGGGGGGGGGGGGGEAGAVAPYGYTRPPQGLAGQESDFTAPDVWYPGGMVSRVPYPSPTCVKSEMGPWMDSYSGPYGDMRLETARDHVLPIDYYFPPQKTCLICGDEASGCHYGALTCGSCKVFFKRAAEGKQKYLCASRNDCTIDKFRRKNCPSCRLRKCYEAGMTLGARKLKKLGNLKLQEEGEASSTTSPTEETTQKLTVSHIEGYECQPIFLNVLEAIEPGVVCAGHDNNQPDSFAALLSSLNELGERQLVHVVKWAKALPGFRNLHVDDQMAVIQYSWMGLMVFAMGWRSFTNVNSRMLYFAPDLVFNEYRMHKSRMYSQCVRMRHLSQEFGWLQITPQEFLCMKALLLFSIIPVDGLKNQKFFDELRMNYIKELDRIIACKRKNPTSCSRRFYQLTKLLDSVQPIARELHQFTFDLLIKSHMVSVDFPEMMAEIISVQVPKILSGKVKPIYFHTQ", "assay": "Cell-based transactivation assay for wild-type human androgen receptor (PC-3 cells, MMTV-luciferase reporter)", "experimental": "Cell-Based Transactivation Assay for Wild-Type Human Androgen Receptor\nPC-3 cells (Kaighn et al., Invest. Urol. 17:16-23, 1979) stably transfected with the human androgen receptor (Swiss-Prot Acc. No. P10275, Entry Version 159, Sequence Version 2) and a reporter plasmid based on pGL4.14 (#E6691, Promega Corporation, Madison, Wis., USA) containing the MMTV promoter (Cato et al., EMBO J. 6:363-8, 1987) were used. They were grown in 5% charcoal-stripped medium and seeded at a concentration of 1000 cells per well in a 384-well plate. For determination of antagonistic activity, the plate additionally contained the compound to be tested at a concentration range varying from 5.12×10^−12 to 1×10^−5 M. The assay was performed in presence of 1×10^−10 R1881 (also known as methyltrienolone). After overnight incubation at 37° C. in a 5% CO2 atmosphere, 15 μl of Steady Glo Lysis and Detection reagent (Steady Glo Luciferase assay system E2550 from Promega Corporation. Madison, Wis., USA) were added. IC50 was calculated for anti-androgenic activity as well as percentage inhibition in presence of 2 μM compound in comparison to non-stimulated luciferase signal. Agonistic activity was determined using the same concentration range of compound in the absence of R1881 by measuring Luciferase activity as above. EC50 was calculated for androgenic activity. Assay/read plates were used (Polystyrol; 384, NV-white cell culture plates; Perkin Elmer)."}, "[2]": {"assay": "Determination of metabolic stability in vitro (calculation of hepatic in vivo blood clearance)", "assay_type": "in vitro ADME", "settings": "pH 7.4, human liver microsomes, calculated from half-life, read-out: calculated hepatic in vivo blood clearance (CL) (converted)", "description": "Determination of Metabolic Stability In Vitro (Including Calculation of Hepatic In Vivo Blood Clearance (CL) and of Maximal Oral Bioavailability (Fmax))\nThe metabolic stability of test compounds in vitro was determined by incubating them at 1 μM with a suspension of human liver microsomes in 100 mM phosphate buffer, pH7.4 (NaH2PO4×H2O+Na2HPO4×2H2O) at a protein concentration of 0.5 mg/ml and at 37° C. The reaction was activated by adding a co-factor mix containing 1.2 mg NADP, 3 IU glucose-6-phosphate dehydrogenase, 14.6 mg glucose-6-phosphate and 4.9 mg MgCl2 in phosphate buffer, pH 7.4. Organic solvent in the incubations was limited to <0.2% dimethylsulfoxide (DMSO) and <1% methanol. During incubation, the microsomal suspensions were continuously shaken and aliquots were taken at 2, 8, 16, 30, 45 and 60 min, to which equal volumes of cold methanol were immediately added. Samples were freezed at −20° C. over night, subsequently centrifuged for 15 minutes at 3000 rpm and the supernatant was analyzed with an Agilent 1200 HPLC-system with LCMS/MS detection.\nThe half-life of a test compound was determined from the concentration-time plot. From the half-life the intrinsic clearances were calculated. Together with the additional parameters liver blood flow, specific liver weight and microsomal protein content the hepatic in vivo blood clearance (CL) and the maximal oral bioavailability (Fmax) were calculated for the different species. The following parameter values were used: Liver blood flow—1.3 l/h/kg human; specific liver weight—21 g/kg human; microsomal protein content—40 mg/g.\nWith the described assay only phase-I metabolism of microsomes is reflected, e.g. typically oxidoreductive reactions by cytochrome P450 enzymes and flavin mono-oxygenases (FMO) and hydrolytic reactions by esterases (esters and amides)."}, "[3]": {"molecular_target": "T2, human androgen receptor W741C mutant (Homo sapiens, UniProt P10275, W742C)", "T2 construct": "expressed in transfected cells; host or cells: PC-3 cells, transient transfection with a pSG5-derived plasmid", "T2 sequence (P10275 1-920 W742C)": "T1 sequence (P10275 1-920) with W742C", "assay": "Cell-based transactivation assay for human androgen receptor mutant W741C", "experimental": "Cell-Based Transactivation Assay for Human Androgen Receptor Mutant W741L or W741C\nPC-3 cells (Kaighn et al., Invest. Urol. 17:16-23, 1979) were grown in 5% charcoal-stripped medium and seeded at a concentration of 10000 cells per well in a 96-well plate. They were transiently transfected with a pSG5-derived plasmid (#216201 from Stratagene, La Jolla, Calif., USA) coding for the human androgen receptor W741L or W741C mutant Mara et al., Cancer Research, 63: 149-153, 2003) and an MMTV-Luciferase reporter plasmid based on pGL4.14 14 (#E6691, Promega Corporation, Madison, Wis., USA). The compound to be tested was added at a concentration range varying from 1×10^−9 to 1×10 M together with 1×10^−10 R1881. After 24 h incubation at 37° C. in a 5% CO2 atmosphere, 100 μl of Steady Glo Lysis and Detection reagent (Steady Glo Luciferase assay system E2550 from Promega Corporation. Madison, Wis., USA) were added. Antagonistic activity was determined by measuring Luciferase activity in a Victor 3 Luminometer (PerkinElmer, Waltham, Mass., USA) using the Steady Glo Luciferase Assay (E2550, Promega). IC50 values were calculated for anti-androgenic activity."}}, "note": "Positions count from the first letter of the chain named."}
{"smiles": "Cc1nc(C(F)(F)F)ccc1CN1C(=S)N(c2ccc(C#N)c(C(F)(F)F)c2)C(=O)C1(C)C", "note": "[Example 13, 4-(4,4-Dimethyl-3-{[2-methyl-6-(trifluoromethyl)pyridin-3-yl]methyl}-5-oxo-2-thioxoimidazolidin-1-yl)-2-(trifluoromethyl)benzonitrile]", "values": [{"measurement": "EC50", "setting": "[1]", "value": "> 10000", "unit": "nM"}, {"measurement": "CLhep predicted at 1 µM", "setting": "[2]", "value": 3.17, "unit": "mL/min/kg"}]}
{"smiles": "CC1(C)C(=O)N(c2ccc(C#N)c(C(F)(F)F)c2)C(=S)N1CCCCO", "note": "[4-[3-(4-Hydroxybutyl)-4,4-dimethyl-5-oxo-2-thioxoimidazolidin-1-yl]-2-(trifluoromethyl)benzonitrile, reference compound]", "values": [{"measurement": "EC50", "setting": "[1]", "value": 8.13, "unit": "nM"}, {"measurement": "IC50", "setting": "[3]", "value": 27.1, "unit": "nM"}]}
{"smiles": "CC1(C)C(=O)N(c2ccc(C#N)c(C(F)(F)F)c2)C(=S)N1Cc1ccccc1", "note": "[Comparative data^4]", "values": [{"measurement": "EC50", "setting": "[1]", "value": 46.4, "unit": "nM"}, {"measurement": "IC50", "setting": "[3]", "value": 142, "unit": "nM"}]}
{"smiles": "CN1C(=S)N(c2ccc(C#N)c(C(F)(F)F)c2)C(=O)C1(C)C", "note": "[2-(Trifluoromethyl)-4-(3,4,4-trimethyl-5-oxo-2-thioxoimidazolidin-1-yl)benzonitrile, reference compound]", "values": [{"measurement": "EC50", "setting": "[1]", "value": 7.97, "unit": "nM"}, {"measurement": "IC50", "setting": "[3]", "value": 21.2, "unit": "nM"}]}
{"smiles": "CC1(C)C(=O)N(c2ccc(C#N)c(C(F)(F)F)c2)C(=S)N1Cc1ccc(N2CCS(=N)(=O)CC2)nc1", "note": "[Example 9, 4-(3-{[6-(1-Imino-1-oxido-1λ^6-thiomorpholin-4-yl)pyridin-3-yl]methyl}-4,4-dimethyl-5-oxo-2-thioxoimidazolidin-1-yl)-2-(trifluoromethyl)benzonitrile]", "values": [{"measurement": "EC50", "setting": "[1]", "value": "> 10000", "unit": "nM"}, {"measurement": "CLhep predicted at 1 µM", "setting": "[2]", "value": 8, "unit": "mL/min/kg"}]}
{"smiles": "CC(C)(O)COc1ccc(CN2C(=S)N(c3ccc(C#N)c(C(F)(F)F)c3)C(=O)C2(C)C)cn1", "note": "[Example 10, 4-(3-{[6-(2-Hydroxy-2-methylpropoxy)pyridin-3-yl]methyl}-4,4-dimethyl-5-oxo-2-thioxoimidazolidin-1-yl)-2-(trifluoromethyl)benzonitrile]", "values": [{"measurement": "EC50", "setting": "[1]", "value": "> 10000", "unit": "nM"}, {"measurement": "IC50", "setting": "[3]", "value": 115, "unit": "nM"}, {"measurement": "CLhep predicted at 1 µM", "setting": "[2]", "value": 5.83, "unit": "mL/min/kg"}]}
{"smiles": "CC1(C)C(=O)N(c2ccc(C#N)c(C(F)(F)F)c2)C(=S)N1Cc1ccc(-n2ccnc2)nc1", "note": "[Example 1, 4-(3-{[6-(1H-Imidazol-1-yl)pyridin-3-yl]methyl}-4,4-dimethyl-5-oxo-2-thioxoimidazolidin-1-yl)-2-(trifluoromethyl)benzonitrile]", "values": [{"measurement": "EC50", "setting": "[1]", "value": "> 10000", "unit": "nM"}, {"measurement": "IC50", "setting": "[3]", "value": 216, "unit": "nM"}, {"measurement": "CLhep predicted at 1 µM", "setting": "[2]", "value": 4.33, "unit": "mL/min/kg"}]}
{"smiles": "CC1(C)C(=O)N(c2ccc(C#N)c(C(F)(F)F)c2)C(=S)N1Cc1ccc(N2CCOCC2)nc1", "note": "[Example 4, 4-(4,4-Dimethyl-3-{[6-(morpholin-4-yl)pyridin-3-yl]methyl}-5-oxo-2-thioxoimidazolidin-1-yl)-2-(trifluoromethyl)benzonitrile]", "values": [{"measurement": "EC50", "setting": "[1]", "value": "> 10000", "unit": "nM"}, {"measurement": "IC50", "setting": "[3]", "value": 270, "unit": "nM"}]}
{"smiles": "CC1(C)C(=O)N(c2ccc(C#N)c(C(F)(F)F)c2)C(=S)N1Cc1ccc(F)cc1", "note": "[Comparative data^4]", "values": [{"measurement": "EC50", "setting": "[1]", "value": 1.79, "unit": "nM"}, {"measurement": "IC50", "setting": "[3]", "value": "> 1000", "unit": "nM"}]}
{"smiles": "CC1(C)C(=O)N(c2ccc(C#N)c(C(F)(F)F)c2)C(=S)N1Cc1ccc(C(F)(F)F)nc1", "note": "[Example 2, 4-(4,4-Dimethyl-5-oxo-2-thioxo-3-{[6-(trifluoromethyl)pyridin-3-yl]methyl}imidazolidin-1-yl)-2-(trifluoromethyl)benzonitrile]", "values": [{"measurement": "EC50", "setting": "[1]", "value": 5430, "unit": "nM"}, {"measurement": "CLhep predicted at 1 µM", "setting": "[2]", "value": 6.5, "unit": "mL/min/kg"}]}
